Measured values published in US20060253079A1, “Stratum corneum piercing device” (priority 2005, published 2006).
Read-outs that look alike come from different tables or passages of the source.

Tested on: skin site on subject's forearm or face
Conditions: for ENHANCED ACTIVE DELIVERY (HISTAMINE RESPONSE): 0.10% wt/wt histamine, visual inspection after 10 minutes; for PRESENCE OF PIH: graded visually for up to at least 3 weeks; for PRESENCE OF ERYTHEMA: 10 microliters 0.10% wt/wt histamine on treated site
[1] = test subject 1, forearm, 225 micrometer, 8 lbs/cm^2
[2] = test subject 2, forearm, 225 micrometer, 6 lbs/cm^2
[3] = test subject 4, forearm, 185 micrometer, 4.6 lbs/cm^2
[4] = test subject 5, forearm, 185 micrometer, 8 lbs/cm^2
[5] = test subject 6, forehead, 145 micrometer, 5 lbs/cm^2

## NCCc1c[nH]cn1 [histamine]
Control test sites: histamine solution on untreated skin sites not pierced by the microprotrusion members
  skin's reaction to topically applied histamine: did not result in erythema
Following microprotrusion treatment
  skin's reaction to topically applied histamine: manifested in erythema
[1]
  ENHANCED ACTIVE DELIVERY (HISTAMINE RESPONSE): Yes,
  PRESENCE OF PIH: Yes
Test subject 1, forearm, microprotrusion length 225 micrometer, 8 lbs/cm^2
  PRESENCE OF ERYTHEMA: Present after
[2]
  ENHANCED ACTIVE DELIVERY (HISTAMINE RESPONSE): Yes,
  PRESENCE OF PIH: Yes
Test subject 2, forearm, microprotrusion length 225 micrometer, 6 lbs/cm^2
  PRESENCE OF ERYTHEMA: Present after
Test subject 3, cheek (bone), 185 micrometer, 3.2 lbs/cm^2
  PRESENCE OF PIH: No
Test subject 3, cheek (bone), microprotrusion length 185 micrometer, 3.2 lbs/cm^2
  PRESENCE OF ERYTHEMA: No
[3]
  ENHANCED ACTIVE DELIVERY (HISTAMINE RESPONSE): Yes,
  PRESENCE OF PIH: No
Test subject 4, forearm, microprotrusion length 185 micrometer, 4.6 lbs/cm^2
  PRESENCE OF ERYTHEMA: No
[4]
  ENHANCED ACTIVE DELIVERY (HISTAMINE RESPONSE): Yes,
  PRESENCE OF PIH: Yes
Test subject 5, forearm, microprotrusion length 185 micrometer, 8 lbs/cm^2
  PRESENCE OF ERYTHEMA: Present after
[5]
  ENHANCED ACTIVE DELIVERY (HISTAMINE RESPONSE): Yes,
  PRESENCE OF PIH: No
Test subject 6, forehead, microprotrusion length 145 micrometer, 5 lbs/cm^2
  PRESENCE OF ERYTHEMA: No
